Assay results as given in patent US10175228B2, “Method of using transmembrane channel-like protein 6 (TMC6) protein to identify substances affecting salty taste” (priority 2016, dated 2019).

Tested on: chimeric TMC6 protein of mouse and Aotus nancymaae
Test: Calcium imaging of CHO-K1 cells expressing the mouse/Aotus nancymaae chimeric TMC6 gene
Format: cell-based
Conditions: stimulation with high-concentration NaCl solution for 60 sec, 21 cells
From the text: The nucleotide sequence of the CDS of the chimeric TMC6 gene cloned into Mouse-Aotus nancymaae chimera TMC6 2A-YC260TM in pcDNA3.1(−) was confirmed to consist of an upstream part identical to positions 1 to 45 of the nucleotide sequence of mRNA of the mouse TMC6 gene (NM_145439) and a downstream part identical to positions 52 to 2421 of the nucleotide sequence of mRNA of the Aotus nancymaae TMC6 gene (XM 012453598) registered in NCBI by sequencing analysis. The chimeric TMC6 gene encodes a chimeric TMC6 protein consisting of the amino acid sequence of positions 1 to 15 of the mouse TMC6 protein (SEQ ID NO: 26) and the amino acid sequence of positions 18 to 807 of the Aotus nancymaae TMC6 protein (SEQ ID NO: 1). The nucleotide sequence of Mouse-Aotus nancymaae chimera TMC6 2A-YC260TM in pcDNA3.1(−) is shown as SEQ ID NO: 63. […]
CHO-K1 cells were transfected with Macaca mulatta TMC6-2A-YC260TM in pcDNA3.1(−), Pongo abelii TMC6-2A-YC260TM in pcDNA3.1(−), Mouse-Aotus nancymaae chimera TMC6 2A-YC260TM in pcDNA3.1(−), or YC2.60-pcDNA, to prepare TMC6-expressing cells (cells expressing the Macaca mulatta TMC6 gene, the Pongo abelii TMC6 gene, or the mouse/Aotus nancymaae chimeric TMC6 gene, in combination with the YC2.60 gene) and control cells (cells expressing the YC2.60 gene). The prepared cells were stimulated, and activation of the cells was measured. […]

For `[Cl-].[Na+]` [NaCl, sodium chloride], the “change of average YFP/CFP value (intracellular calcium concentration)” value was “increase”.
